Reference: patent US20210322622A1, “COMPOSITIONS AND METHODS FOR PREPARATION OF COMPOSITE POLYMER FILMS ON NON-CONDUCTING SUBSTRATES, INCLUDING BANDAGES, AND THEIR USE FOR TREATING WOUNDS” (The Johns Hopkins University, priority 2018, published 2021)

How the values were obtained:
[1] = In vitro release of antibiotics from PLGA/PCL composite coatings on titanium K-wires (HPLC); type: physicochemical; conditions: for release kinetics after storage: stored coated pins, two-week in vitro release
Description: (§1) The release rate of the polymer composite film was measured by HPLC. Drug release studies were conducted using coated pins created with the same loading parameters as those used for later in vivo testing (10% (w/w) drug combinations) electrospun for 60 seconds at injection rates of 0.5 mL/h from each needle. Release rate of antibiotics from the composite polymer coating was characterized by placing coated pins in 200 μL pH 7.4 PBS buffer and incubating at 37° C. in an aluminum film-covered incubator to prevent possible light-induced drug degradation. Release media was changed at fixed time points over a period of two weeks and stored in a −20° C. freezer until analysis. Drug concentrations in release media for each day were determined via reverse-phase HPLC using a C-18 column in an Alliance HPLC system and Waters 2996 PDA detector. The mobile phase was a mixture of acetonitrile and water both mixed with 0.1% TFA acid, which was run at a gradient from (15%/85%) to (40%/60%) for a total runtime of 15 minutes per sample for the elution of Van/Rif and Lin/Rif drug loading groups. Elution of the Dap/Rif loading group was conducted using a mobile phase of (49%/51%) of acetonitrile and water both mixed with 0.1% TFA acid for a total run time of 11 minutes per sample. Concentrations of the drugs were quantified using wavelengths of 343 nm for Rif, 254 nm for Lin, 280 nm for Van and 223 nm for Dap using prepared standard curves for all three drugs. […] Quantification was performed through the derivatization of Gentamicin with ninhydrin at 95° C. for 15 minutes and detection with a Biotek Synergy2 plate reader.
Long-term efficacy of the antimicrobial activity was tested by storing electrospun pins at room temperature for 6 weeks, −20° C. for 6 weeks, and −80° C. for 8 months. Coated pins were protected from light during storage. These pins were then used in the same zone of inhibition assay as described hereinabove.
Drug release studies were conducted using coated pins created with the same loading parameters as detailed above. Release kinetics of antibiotics from the composite coating were characterized by placing coated pins in 200 μL of phosphate buffer saline (PBS, pH 7.4) at 37° C. Release media was changed daily over a period of two weeks and stored at −20° C. until analysis. Drug concentrations in release media were measured on days 1, 2, 3, 5, 7, 10 and 14 using a Waters Alliance 2690 HPLC system (Waters Corporation, Milford, Mass.) equipped with an Accucore RP-MS C18 column (100 mm×2.1 mm; Thermo Fisher Scientific) and a Waters 2996 PDA detector. The elution was carried out with a mobile phase of water and acetonitrile both mixed with 0.1% TFA at a flow rate of 1 mL/min at ambient temperature using a linear gradient elution program of 85% water to […] in 15 minutes. Concentrations of the drugs were quantified using wavelengths for Van (280 nm), Lin (254 nm), Dap (224 nm) and Rif (263 nm).

S. aureus strain Xen36 = assay: MIC of XEN36 for each antibiotic; type: cell-based, Staphylococcus aureus; conditions: S. aureus XEN36; for MIC: Staphylococcus aureus, read-out: MIC of XEN36
Description: S. aureus strain Xen36 (PerkinElmer, Waltham, Mass.) previously derived from the clinical bacteremia isolate ATCC 49525 (Wright) was used in all experiments. (Francis et al., 2000). […] (Francis et al., 2000). Xen36 was prepared for inoculation as previously described. (Niska et al., 2013; Pribaz et al. (2012)).

S. aureus = assay: In vitro zone of inhibition assay of coated K-wires; type: cell-based, Staphylococcus aureus; conditions: 6 weeks room temperature, 6 weeks −20° C., 8 months
Description: A zone of inhibition assay was used as an additional assay to evaluate the in vitro release of antibiotic(s) from the composite coating. Tryptic soy agar bacterial plates were inoculated with S. aureus bacteria cells to yield a bacterial lawn after overnight culture. After bacterial inoculation and before culturing the plates, two identical titanium K-wires loaded with either 10 w/w % Lin, 10 w/w % Van, or 10 w/w % Dap alone, or in combination with Rif were placed in two separate areas on the plate. After culturing the plates at 37° C. for 24 hours, the antimicrobial activity of the eluded antibiotic(s) into the agar was measured as a zone of inhibition (diameter [mm]) of the bacterial growth around the K-wire.
Long-term efficacy of the antimicrobial activity was tested by storing electrospun pins at room temperature for 6 weeks, −20° C. for 6 weeks, and −80° C. for 8 months. Coated pins were protected from light during storage. These pins were then used in the same zone of inhibition assay as described hereinabove. These antimicrobial results were further confirmed with a two-week in vitro release study to determine release kinetics after storage.
Tryptic soy agar (TSA) bacterial plates were inoculated with S. aureus to yield a bacterial lawn after overnight culture. Before culturing the plates, two titanium K-wires each loaded with the same combination of antibiotics from each set were placed in two separate areas on the plate. After culturing at 37° C. for 24 hours, the zone of inhibition (ZOI) (diameter/mm) of bacterial growth were measured.

[2] = Release kinetics of antibiotics from nanofiber-hydrogel composite sheet (HPLC); type: physicochemical
Description: A sheet device was designed with the goal of reinforcing the implant soft tissue pocket, as well as serving as a platform for the local delivery of antibiotics. The device was composed of a polycaprolactone (PCL) nanofiber sheet core embedded within a nanofiber-hydrogel composite scaffold. The nanofiber core was created via random-pattern electrospinning of PCL dissolved in an organic solvent. An antibiotic-containing version was created by adding 1% w/w of linezolid and rifampicin to the starting PCL solution. All materials containing rifampicin were protected from light exposure to minimize risk of degradation. Next a composite scaffold was prepared by interfacially bonding 500-nm PCL nanofibers suspended within a hyaluronic acid matrix. The nanofiber sheet was then embedded within the composite scaffold and shaped to form a 1-mm thick sheet device. Release kinetics of each antibiotic were assessed using high-performance liquid chromatography (HPLC).

[3] = In vitro release of Gentamicin from PLGA nanofibers / composite coating (ninhydrin); type: physicochemical
Description: The drug groups tested all included Rifampin (Rif), and the second drug was varied among linezolid (Lin), vancomycin (Van), and daptomycin (Dap). Each drug group combination of Rif and a secondary drug was tested with five pin groups as shown in Sets 1-3 (FIG. 1E). To load the antibiotics into the polymer nanofibers or film, Rif and Lin were dissolved in corresponding 10% w/w PLGA or PCL polymer solution prior to electrospinning. Van or Dap was first dissolved in dimethyl sulfoxide (DMSO) to form a 20% (w/w) solution before being added into their respective polymer solutions to form a suspension. This suspension can be electrospun in a relatively uniform fashion. Suspensions using water as a solvent were also produced using the model drug Gentamicin (Gent). Briefly, Gent was dissolved in DI water to form a 30% (w/w) solution before being added to a PLGA solution dissolved in HFIP. The suspension was stabilized through prolonged sonication and vortexing prior to electrospinning.
as §1, with “drugs. As an example, FIG. 3A and FIG. 3B show the in vitro release profiles of Lin and Rif from the composite coating on titanium K-wire implants.” for “drugs.”

Molecule | release kinetics after storage [1] | MIC (S. aureus strain Xen36) [µg/mL] | antimicrobial activity (zone of inhibition) after storage versus freshly prepared coatings (S. aureus) | complete release from the nanofiber-hydrogel composite sheet [2] [days] | release from the nanofiber-hydrogel composite sheet within the first 24 hours [2] [%] | time Rif remains above the MIC, tuned by PCL molecular weight or PCL layer thickness ([1]; in vitro release from composite coating) [days] | MIC of XEN36 (S. aureus strain Xen36) | Gentamicin release profile ([3]; 50:50 PLGA) | release of Gentamicin above the MIC, controlled by polymer choice ([3]; 50:50 versus 75:25 PLGA) [days] | Gentamicin release profile ([3]; 75:25 PLGA) | Day 1 release of Gentamicin ([3]; PLGA nanofibers alone) | Day 1 release of Gentamicin ([3]; PLGA nanofibers embedded in PCL film layer) | time Gentamicin concentration at MIC could be sustained ([3]; in vitro release from PLGA nanofibers)
CCCCCCCCCC(=O)N[C@@H](Cc1c[nH]c2ccccc12)C(=O)N[C@H](CC(N)=O)C(=O)N[C@@H](CC(=O)O)C(=O)N[C@@H]1C(=O)NCC(=O)N[C@@H](CCCN)C(=O)N[C@@H](CC(=O)O)C(=O)N[C@H](C)C(=O)N[C@@H](CC(=O)O)C(=O)NCC(=O)N[C@H](CO)C(=O)N[C@@H]([C@H](C)CC(=O)O)C(=O)N[C@@H](CC(=O)c2ccccc2N)C(=O)O[C@@H]1C [Dap, daptomycin] | no difference in the release kinetics | 0.25 | no significant loss of antimicrobial activity |  |  |  |  |  |  |  |  |  | 
CC(=O)NC[C@H]1CN(c2ccc(N3CCOCC3)c(F)c2)C(=O)O1 [Lin, linezolid] | no difference in the release kinetics | 2 | no significant loss of antimicrobial activity | ≤ 3 | 70 |  |  |  |  |  |  |  | 
CO[C@H]1/C=C/O[C@@]2(C)Oc3c(C)c(O)c4c(O)c(c(/C=N/N5CCN(C)CC5)c(O)c4c3C2=O)NC(=O)/C(C)=C\C=C\[C@H](C)[C@H](O)[C@@H](C)[C@@H](O)[C@@H](C)[C@H](OC(C)=O)[C@@H]1C [Rif, Rifampin] | reduced after storage at room temperature for six weeks, but not when the pins were stored at −20 °C | 0.5 | no significant loss of antimicrobial activity | ≤ 14 | 70 | 2 to 5 |  |  |  |  |  |  | 
Gentamicin |  |  |  |  |  |  | roughly 10 μg/mL | sustained release | 2 to 14 | only a burst release | 80 % of total loading | less than 45 % of total loading | up to 14 days
